Blank lines part the entries; values can stand above or below the compound they belong to.
Assays:
Experiment in all cases: In vitro MMP inhibition analysis (fluorogenic peptide substrate cleavage), Ki
Type in all cases: biochemical
Human recombinant MMP-14 = molecular target: T1, Human recombinant MMP-14 (Homo sapiens, UniProt P50281)
T1 construct: The catalytic domain enzyme was expressed in E. coli inclusion bodies, solubilized in urea; made in house
Experimental: (§1) Several compounds and salts were analyzed in an in vitro assay to determine their ability to inhibit the MMP cleavage of peptide substrates. Inhibition constant (Ki) were calculated from the assayed compound-MMP interactions.
(§2) Human recombinant MMP-1, MMP-2, MMP-9, MMP-13, and MMP-14 were used in this assay. All enzymes were prepared in Assignee's laboratories following usual laboratory procedures. Protocols for the preparation and use of these enzymes are available in the scientific literature. See, e.g., Enzyme Nomenclature (Academic Press, San Diego, Calif., 1992) (and the citations therein). See also, Frije et al., J. Biol. Chem., 26(24), 16766-73 (1994).
The MMP-14 full length cDNA was provided by Dr. Gregory Goldberg of Washington University (St. Louis, Mo.). The catalytic domain enzyme was expressed in E. coli inclusion bodies, solubilized in urea, purified on a preparative […] reverse phase HPLC column, and then refolded in the presence of zinc acetate and purified for use.
(§3) All MMPs were activated using 4-aminophenylmercuric acetate (“APMA”, Sigma Chemical, St. Louis, Mo.) or trypsin. MMP-9 also was activated using human recombinant MMP-3 (purified in Assignee's laboratory following standard cloning and purification techniques).
(§4) The following fluorogenic, methoxycoumarin-containing polypeptide substrate (I) was used in the MMP inhibition assays: MCA-ArgProLeuGlyLeuDpaAlaArgGluArgNH2 (I) “MCA” is 7-methoxycoumarin-4-yl acetyl. Substrate (I) was prepared Assignee's laboratory. In the absence of MMP inhibitory activity, the substrate is cleaved at the Gly-Leu peptide bond. This cleavage separates the highly fluorogenic peptide from the 2,4-dinitrophenyl quencher, thus resulting in increase of fluorescent intensity.
(§5) The stock solutions of the assayed compounds and salts were prepared in […] (DMSO). These stock solutions were diluted in Buffer A (100 mM Tris-HCl, 100 mM NaCl, 10 mM CaCl2, 0.05% polyoxyethylene 23 lauryl ether, pH 7.5) to obtain solutions with different compound concentrations, i.e., assay solutions with different concentrations of the assayed […] compound. The experiment controls contained the same amount of Buffer A/DMSO as the assayed sample, but contained none of the tested compound or salt.
(§6) The assays from which the Ki determinations were made were performed as follows. The assayed compound samples were incubated in separate wells of untreated white polystyrene plates (Nunc Nalgene International, Rochester, N.Y.), and analyzed on a Tecan SpectraFlour Plus plate reader. The excitation wavelength was 330 nm, and the emission wavelength—420 nm. All samples (assayed compounds and controls) were incubated in separate plate wells at room temperature for 1 hr in the presence of 4 μM of MMP substrate (I). In the absence of MMP inhibitory activity, substrate (I) was cleaved at the Gly-Leu bond resulting in an increase of relative fluorescence. Inhibition was observed as a reduced rate of this increase in relative fluorescence. […] This protocol is a modification of method by Knight et al., FEBS Lett., 296(3), 263-266 (1992). Apparent inhibitory constants were determined by non-linear regression of reaction velocity as a function of inhibitor and enzyme concentration using Morrison's equation, as described by Kuzmic, Anal. Biochem. 286, 45-50 (2000). Modifications were made in the non-linear regression method to allow a common control reaction rate and effective enzyme concentration to be shared between all dose-response relationships on a given assay plate. Since the substrate concentration was chosen to be at or below the Km, the apparent Ki's from this analysis were reported as Ki's without correction for the influence of substrate.
(§7) The above protocols were used to determine Ki constants for the compounds in Examples 2-35 above. All Ki values in Table 1 are given in nM units.

Human recombinant MMP-9 = molecular target: T2, Human recombinant MMP-9 (Homo sapiens, UniProt P14780)
T2 construct: made in house; host or cells: MMP-9-transfected HT1080 cells (spent media)
Experimental: as §1, §2
The MMP-9 proenzyme was purified by gelatin Sepharose chromatography from spent media of MMP-9-transfected HT1080 cells provided by Dr. Howard Welgus of Washington University (St. Louis, Mo.).
as §3, §4, §5, §6, §7

Human recombinant MMP-1 = molecular target: T3, Human recombinant MMP-1 (Homo sapiens, UniProt P03956)
T3 construct: made in house; host or cells: MMP-1-transfected HT-1080 cells (spent media)
T3 sequence (P03956 100-469): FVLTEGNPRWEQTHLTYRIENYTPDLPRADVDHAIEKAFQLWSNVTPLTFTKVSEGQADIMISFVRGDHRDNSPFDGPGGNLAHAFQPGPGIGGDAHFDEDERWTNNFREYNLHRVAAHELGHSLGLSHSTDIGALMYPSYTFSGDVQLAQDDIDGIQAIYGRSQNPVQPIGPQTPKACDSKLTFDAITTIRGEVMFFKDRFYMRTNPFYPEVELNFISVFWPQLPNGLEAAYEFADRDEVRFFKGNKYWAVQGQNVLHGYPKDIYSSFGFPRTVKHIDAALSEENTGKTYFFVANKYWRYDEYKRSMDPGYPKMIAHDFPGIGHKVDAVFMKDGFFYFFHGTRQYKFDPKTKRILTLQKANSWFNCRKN
Experimental: as §1, §2
The MMP-1 proenzyme was purified from the spent media of MMP-1-transfected HT-1080 cells provided by Dr. Harold Welgus of Washington University (St. Louis, Mo.). The protein was purified on a zinc chelating column.
as §3, §4, §5, §6, §7

T2 sequence (P14780 107-707 limits assumed): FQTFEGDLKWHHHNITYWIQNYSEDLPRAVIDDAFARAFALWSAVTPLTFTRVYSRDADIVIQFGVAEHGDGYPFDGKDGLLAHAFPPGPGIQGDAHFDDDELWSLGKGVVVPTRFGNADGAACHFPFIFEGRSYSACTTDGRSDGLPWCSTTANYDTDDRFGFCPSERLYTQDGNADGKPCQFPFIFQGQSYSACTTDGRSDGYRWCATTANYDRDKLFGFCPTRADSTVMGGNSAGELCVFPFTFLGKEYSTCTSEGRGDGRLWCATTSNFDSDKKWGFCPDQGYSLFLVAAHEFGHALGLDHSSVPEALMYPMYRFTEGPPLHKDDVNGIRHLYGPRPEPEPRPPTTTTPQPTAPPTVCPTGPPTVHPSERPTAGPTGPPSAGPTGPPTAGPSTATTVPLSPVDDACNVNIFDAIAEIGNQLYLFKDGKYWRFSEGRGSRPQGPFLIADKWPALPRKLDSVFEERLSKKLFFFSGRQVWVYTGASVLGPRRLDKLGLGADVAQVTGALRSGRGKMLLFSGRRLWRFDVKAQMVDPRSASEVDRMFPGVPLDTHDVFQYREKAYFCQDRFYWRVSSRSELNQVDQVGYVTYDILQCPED

Ki (Human recombinant MMP-14; Table 2): 0.139 µM | Ki (Human recombinant MMP-9; Table 2): 0.00709 µM | Ki (Human recombinant MMP-1; Table 2): > 10 µM
SMILES: CCN1CCC(C(=O)NO)(S(=O)(=O)c2ccc(-c3noc(-c4ccc(F)cc4)n3)cc2)CC1 [Example 147]

Ki (Human recombinant MMP-14; Table 2): 1.01 µM | Ki (Human recombinant MMP-9; Table 2): 0.00995 µM | Ki (Human recombinant MMP-1; Table 2): > 10 µM
SMILES: CCN1CCC(C(=O)NO)(S(=O)(=O)c2ccc(-c3ccc(Oc4ccccc4)cc3)cc2)CC1 [Example 135]

Ki (Human recombinant MMP-14; Table 2): 3.48 µM | Ki (Human recombinant MMP-9; Table 2): 0.114 µM | Ki (Human recombinant MMP-1; Table 2): 9.63 µM
SMILES: CC(=O)Nc1cnc(-c2ccc(S(=O)(=O)C3(C(=O)NO)CCOCC3)cc2)cn1 [Example 76]

Ki (Human recombinant MMP-14; Table 2): 0.283 µM | Ki (Human recombinant MMP-9; Table 2): 0.00044 µM | Ki (Human recombinant MMP-1; Table 2): 3.86 µM
SMILES: CCN1CCC(C(=O)NO)(S(=O)(=O)c2ccc(-c3ccc(-c4csc(C)n4)cc3)cc2)CC1 [Example 155]

Second part, the compound before the results:

SMILES: COCCN1CCC(C(=O)NO)(S(=O)(=O)c2ccc(-c3ccc(CCCC(F)(F)F)cn3)cc2)CC1 [Example 54]
Ki (Human recombinant MMP-14; Table 1): 1.11 µM | Ki (Human recombinant MMP-9; Table 1): 0.00025 µM | Ki (Human recombinant MMP-1; Table 1): 6.37 µM

SMILES: COCCN1CCC(C(=O)NO)(S(=O)(=O)c2ccc(-c3ccc(CCCC(F)(F)F)cc3)cc2)CC1 [Example 43]
Ki (Human recombinant MMP-14; Table 1): 1.59 µM | Ki (Human recombinant MMP-9; Table 1): 0.00043 µM | Ki (Human recombinant MMP-1; Table 1): 6.87 µM

SMILES: O=C(NO)C1(S(=O)(=O)c2ccc(-c3ccc(OC(F)(F)C(F)F)cc3)cc2)CCN(CCl)CC1 [Example 38]
Ki (Human recombinant MMP-14; Table 1): 0.446 µM | Ki (Human recombinant MMP-9; Table 1): 0.000126 µM | Ki (Human recombinant MMP-1; Table 1): 0.65 µM

SMILES: O=C(NO)C1(S(=O)(=O)c2ccc(-c3ccc(OC(F)(F)C(F)F)cc3)cc2)CCN(C2CC2)CC1 [Example 40]
Ki (Human recombinant MMP-14; Table 1): 0.292 µM | Ki (Human recombinant MMP-9; Table 1): 0.000102 µM | Ki (Human recombinant MMP-1; Table 1): 0.508 µM

SMILES: COCCC(C(=O)NO)S(=O)(=O)c1ccc(-c2ccc(CCCC(F)(F)F)cc2)cc1 (stereo not drawn) [Example 47]
Ki (Human recombinant MMP-14; Table 1): 5.26 µM | Ki (Human recombinant MMP-9; Table 1): 0.0028 µM | Ki (Human recombinant MMP-1; Table 1): > 10 µM

Source: patent US20060074243A1, “Hydroxamic acid and amide compounds and their use as protease inhibitors” (Pharmacia Corporation, priority 2002, published 2006)
